Patent US9802962B2, “Tricyclic pyrone compounds reduce amyloid beta aggregates” (priority 2013, dated 2017)

What was measured:
MC65 neuroblastoma cells = assay: MC65 protection assay; assay type: cell-based; conditions: protection of MC65 cells from death caused by intracellular Aβ; for EC50: read-out: effective concentrations for 50% cell survival (EC50)
Protocol: Employing medium-throughput cell-based MC65 protection assay to screen over one hundred TP compounds, seven TP compounds that protect MC65 neuroblastoma cells from death caused by intracellular Aβ have been identified. […] The EC50 values for CP2, TP70, and TP101 are 120, 80, and 70 nM, respectively.

5×FAD mice [1] = assay: In vivo efficacy in 5×FAD mice; conditions: 5×FAD mice
Protocol: FIGS. 6A-6E. 2-month-old 5×FAD mice were treated with TP70 or vehicle for 6 weeks as described in the text. Four cortical sections evenly distributed through the cerebrum were taken from one hemisphere of each mouse (6 mice in each treatment group) and fluorescently stained with the amyloid dye FSB (blue) and the nuclear dye propidium iodide (PI, red). A: Representative sections that show the PI stain. B: Representative sections that only show the FSB stain. C: Fluorescent staining was objectively quantified by LSC. […] E: A representative Western blot containing the soluble fractions of three mice of each group was analyzed for soluble Aβ dimer (see ref 59 for the method).
Although the mechanism of neuron loss in Alzheimer's disease (AD) remains elusive, it is associated with cerebral accumulation of Aβ42. The 5×FAD mouse model of amyloid deposition expresses five familial AD (FAD) mutations that are additive in driving Aβ42 overproduction.

[2] = tested on: ABCA1 cholesterol transporter gene; assay: Increase of ABCA1 cholesterol transporter gene; assay type: cell-based
From the text: (§1) It has been reported that an induction of cholesterol efflux resulting in a reduction of Aβ formation/deposition in vitro and in vivo (Kim, et al., J Alzheimers Dis, 2009, 16:121-131). For additional Detail, see the attached manuscript entitled, “Inhibition of Acyl-CoA: Cholesterol Acyltransferase (ACAT), Overexpression of Cholesterol Transporter Gene, and Protection of Amyloid β (Aβ) Oligomers-Induced Neuronal Cell Death by Tricylic Pyrone Molecules” which is incorporated herein.

5×FAD mice [3] = conditions: reported in Hong, et al., J Neurochem, 2009; cited from earlier work
[4] = log P by octanol/water partition; assay type: physicochemical
ACAT = ACAT inhibition; assay type: biochemical; conditions: read-out: half maximal inhibitory concentration (IC50), ACAT
From the text: as §1

[5] = Plasma and brain concentrations after i.v. administration in mice; assay type: in vivo
Protocol: FIGS. 3A-3B. FIG. 3A. CP2 and TP70 plasma and brain concentrations following i.v. injection in mice (n=3). FIG. 3B. […] The drug concentration was determined using HPLC and mass spectrometry.
HPLC/mass spectrometry were employed to quantify CP2 and TP70 in the plasma and brain after i.v. administration in mice. The CP2 concentration was 200-300 μM in the mouse brain between 0.5 and 2 h following 25 mg/kg i.v. administration (FIG. 3A). Similarly, TP70 concentration reached 190 μM in plasma at 5 min and 160 μM in brain at 2 h following 25 mg/Kg i.v. administration (FIGS. 3A and 3B).

Cc1cc2c(c(=O)o1)C=C1CCC(C(C)CNCc3ccc(O)c4ccccc34)CC1O2 (centres unmarked) [TP54]
EC50 values (in words) (MC65 neuroblastoma cells): nanomolar range

Cc1cc2c(c(=O)o1)C=C1CCC(C(C)CNCc3ccc(CO)cc3)CC1O2 (centres unmarked) [TP82]
EC50 values (in words) (MC65 neuroblastoma cells): nanomolar range

Cc1cc2c(c(=O)o1)C=C1CC[C@H](C(C)Cn3cnc(N)c4ncnc3-4)C[C@@H]1O2 (some centres unmarked) [CP2]
cerebral amyloid load (5×FAD mice [1]): substantially reduce | drug toxicity during the course of treatment (5×FAD mice [1]): no apparent drug toxicity | histopathology, hematological counts, and blood chemistry at necropsy (5×FAD mice [1]): No abnormalities | levels of toxic Aβ dimers (5×FAD mice [1]): substantially reduce | EC50 [2]: 900 nM | soluble and insoluble Aβ aggregates in vivo (5×FAD mice [3]): reduce soluble and insoluble Aβ aggregates in vivo | log P [4]: 2.20 | IC50 (ACAT): 1200 nM | EC50 (MC65 neuroblastoma cells): 120 nM | CNS penetration ([5]; i.v., mice): good CNS penetration | brain concentration ([5]; mouse brain, between 0.5 and 2 h, 25 mg/kg i.v.): 200 to 300 µM

Cc1cc2c(c(=O)o1)C=C1CCC(C(C)CNCc3ccc(O)c(F)c3)CC1O2 (centres unmarked) [TP101]
EC50 values (in words) (MC65 neuroblastoma cells): nanomolar range | EC50 (MC65 neuroblastoma cells): 70 nM

CC(=O)OCCc1cc2c(c(=O)o1)C=C1CC[C@H](C(C)Cn3cnc(N)c4ncnc3-4)C[C@@H]1O2 (some centres unmarked) [TP4]
EC50 values (in words) (MC65 neuroblastoma cells): nanomolar range

Cc1cc2c(c(=O)o1)C=C1CCC(C(C)CNCc3c[nH]cn3)CC1O2 (centres unmarked) [TP36]
EC50 values (in words) (MC65 neuroblastoma cells): nanomolar range
